# According to patent publication US20190167676A1, “METHODS FOR IMPROVING RESISTANCE TO SKELETAL MUSCLE FATIGUE” (Cytokinetics, Inc., priority 2012, published 2019):
# Legend:
# [1] = Plasma levels at end of rotarod experiment; type: in vivo, rat; details: end of experiment (not at Cmax)
# Procedure: The effect of the fast skeletal muscle troponin activator 1-(2-(((trans)-3-fluoro-1-(3-fluoropyridin-2-yl)cyclobutyl)methylamino)pyrimidin-5-yl)-1H-pyrrole-3-carboxamide (Compound C) on muscle fatigue in healthy rats was determined by a rotarod running time test. […] On the day of the assessment, the animals began by running at an increasing speed from 14-16 RPM over 5 minutes. Rats were then run at a constantly accelerating rate from 12 RPM to 25 RPM over the course of 10 minutes. Time to fall was recorded, with the test being terminated at 600 seconds. The plasma levels were determined at the end of the experiments (not at Cmax). The plasma levels for the indicated doses were determined to be the following: […]
# LAD-HF rats = test: Fatiguing rotarod in rat heart failure model; type: in vivo
# Excerpt: To determine the effect of Compound C on skeletal muscle function in patients with heart failure, a rat heart failure model was used. Female Sprague Dawley rats (<250 g) were obtained from Charles River Laboratories having the left anterior descending coronary artery ligated prior to shipping (LAD-HF rats). Sham operated controls were also obtained from the same surgical preparation (sham controls). All rats underwent assessment of cardiac function after a three day acclimation to provide baseline levels. Animals were assessed on weeks 4, 7 and 10 to observe the progress of exercise intolerance at least 3 days after echocardiography. Exercise performance was assessed using the fatiguing rotarod protocol described in Example 11 (5 minute run ramping from 14-16 RPM, followed by run time assessment during a 10 minute ramp from 12 to 25 RPM). LAD-HF rats were selected based on a left ventricular fractional shortening <25% and reduced run time compared to sham controls. […] Decreases in fractional shortening (determined by echocardiography) were apparent.
# Animals were assigned in a cross-over fashion whereby half of the animals received Compound C (10 mg/kg PO) and half received vehicle (19.3%PEG: 80% (15%) captisol, pH3, 0.2% tween, 0.5% HPMC) via oral gavage 30 minutes prior to rotarod assessment on Day 1 and then the opposite treatment on Day 2.
# [2] = system: extensor digitorum longus (EDL) muscles; test: In situ EDL force-frequency in sham and LAD-HF rats; type: in vivo, rat; details: 3 mg/kg IV, sham and LAD-HF groups
# Procedure: An in situ assessment of selected animals from Example 12 was run at the end of the study to assess functional characteristics of extensor digitorum longus (EDL) muscles in Sham and LAD animals. Effects with and without Compound C (3 mg/kg IV) were assessed.
# Rats were placed under anesthesia and the skin around the experimental leg was removed. The distal end of the extensor digitorum longus (EDL) muscle and its associated tendon were then isolated. The rat was then placed on the platform of an Aurora in situ muscle analysis rig wherein the knee was immobilized and the distal tendon cut and tied to the arm of a force transducer. The muscle was stimulated directly via steel needle electrodes contacting the peroneal nerve. Muscle contractile properties were assessed by applying an electrical current to the nerve and recording the force generated by the muscle via a servomotor. The muscle length was adjusted to produce the maximum isometric force (Lo) after sub-maximal stimulation (30 Hz, 1 ms pulses, 350 ms train duration). Once Lo had been established, the nerve was stimulated every 2 minutes with a 30 Hz train (1 ms stimuli, 350 ms duration) for the course of the experiment.
# Once the preparation was stable, a force frequency relationship was assessed, then Compound C (3 mg/kg IV) or vehicle was injected and a second force frequency was assessed. […]
# sham and HF EDL fibers = test: Skinned EDL fiber force-Ca2+ relationship; design: species or system rat; details: 3 μM, sham and HF EDL muscle
# Procedure: (§1) Muscle tissue for in vitro skinned fiber studies were prepared using an adapted protocol based on Lynch and Faulkner (Am J Physiol 275:C1548-54 (1998)). Briefly, rat muscle from sham and HF animals were rapidly dissected, rinsed in physiological saline, and then incubated in skinning solution (125 mM K-propionate, 20 mM imidazole, 5 mM EGTA, 2 mM MgCl2, 2 mM ATP, pH 7.0) supplemented with 0.5% TritonX-100 (Sigma Chemicals, St. Louis, Mo.) for 30 minutes at 4° C. The buffer was then changed to a storage solution (125 mM K-propionate, 20 mM imidazole, 5 mM EGTA, 2 mM MgCl2, 2 mM ATP, glycerol 50%, pH 7.0) and stored at −20° C. for later use.
# (§2) For skinned fiber analysis, single muscle fibers were dissected from larger segments of tissue in rigor buffer at 4° C. ([…], pH 7.0). They were then suspended between a 400 A force transducer (Aurora Scientific, Ontario, Canada) and a fixed post and secured with 2-4 μl of a 5% solution of methylcellulose in acetone. […] Tension was generated in each fiber by changing fiber buffer over to relax buffer supplemented with 1 mM EGTA and a 15 mM solution of calcium chloride and calculated using the web resource (www.stanford.edu/˜cpatton/webmaxc/webmaxcS.htm). […]
# [3] = system: sham and LAD-HF diaphragm fibers; test: Skinned diaphragm fiber Ca2+ sensitivity; design: species or system rat; details: 3 μM
# Procedure: as §1, §2
# [4] = system: sham and LAD-HF diaphragm strips; test: Diaphragm force-frequency by electrical field stimulation in organ bath; design: species or system rat; details: 30 μM, sham and LAD-HF diaphragms, submaximal frequencies of electrical stimulation
# Procedure: Diaphragm contractile force was measured by electrical field stimulation in an organ bath system based on a standard operating protocol adapted from the Treat NMD website (http://www.treat-nmd.eu/downloads/file/sops/dmd/MDX/DMD M.1.2.002.pdf). The diaphragm and the last floating rib from sham and HF animals were excised, rinsed in physiological saline, and placed in a temperature controlled water-jacketed chamber (26-27° C.) containing Krebs-Henseleit Buffer (118 mM NaCl, 10 mM glucose, 4.6 mM KCl, 1.2 mM KH2PO4, 1.2 mM MgSO4*7 H2O, 24.8 mM NaHCO3, 2.5 mM CaCl2, 50 mg/L tubocurarine, 50 U/L insulin, pH:7.4) that was continuously aerated with 95% O2/[…]. After 10 minutes of equilibration, vertical strips spanning the floating rib to the central tendon were cut from diaphragms. Braided silk sutures were tied at the central tendon and floating rib and attached to a force transducer between two platinum electrodes. Diaphragm strips were set to a length that produced maximum twitch tension (Lo). The force-frequency profile of the muscle was obtained by stimulating the muscle at frequencies between 10-150 Hz (Grass Stimulator, 800 ms train duration, 0.6 ms pulse width). Compound C was suspended in DMSO and directly added into the bath.
compound,measurement,setting,value
"NC(=O)c1ccn(-c2cnc(NCC3(c4ncccc4F)CC(F)C3)nc2)c1 (stereo not drawn) [Compound C, 1-(2-(((trans)-3-fluoro-1-(3-fluoropyridin-2-yl)cyclobutyl)methylamino)pyrimidin-5-yl)-1H-pyrrole-3-carboxamide]",[Plasma],[1]; 0.01 mg/kg,0.003 µM
same,[Plasma],[1]; 0.03 mg/kg,0.007 µM
same,[Plasma],[1]; 0.1 mg/kg,0.024 µM
same,[Plasma],[1]; 0.3 mg/kg,0.083 µM
same,[Plasma],[1]; 1 mg/kg,0.204 µM
same,[Plasma],[1]; 3 mg/kg,0.478 µM
same,[Plasma],[1]; 10 mg/kg,1.95 µM
same,[Plasma],[1]; 30 mg/kg,3.64 µM
same,[Plasma],[1]; 100 mg/kg,28.0 µM
same,increase of rotarod running time compared to vehicle treatment,LAD-HF rats; 10 mg/kg PO,approximately 2.5 fold
same,rotarod running time (mean±S.E.),"LAD-HF rats; 10 mg/kg PO 30 minutes prior, vehicle 111±32",277 ± 32 s
same,response to low frequency stimulation,[2],increased response to low frequency stimulation in both groups
same,force-Ca2+ relationship,sham and HF EDL fibers,leftward shift in the force-Ca^2+ relationship
same,Ca2+ sensitivity,[3],significantly increased Ca^2+ sensitivity
same,diaphragm force,[4],significantly increased force
